According to patent US20260070924A1, “INDAZOLE MACROCYCLES AND THEIR USE” (BLOSSOMHILL THERAPEUTICS, INC., priority 2022, published 2026):

Tests used:
BaF3 FLT3-ITD/D835V = experiment: Cell proliferation panel (CellTiter-Glo 2.0, 5 days); assay type: cell-based; conditions: murine pro-B cell line expressing FLT3-ITD/D835V
Excerpt: (§1) Ba/F3 cells were purchased from DSMZ. The FLT3-ITD gene was synthesized at GenScript and cloned into pCDH-CMV-MCS-EF1-Puro plasmid (System Biosciences, Inc). FLT3-ITD/D835V and FLT3-ITD/F691L cDNA clones were made at GenScript by PCR and confirmed by sequence. Ba/F3 FLT3-ITD, FLT3-ITD/D835V and FLT3-ITD/F691L cell lines were generated by infecting Ba/F3 cells with lentivirus containing FLT3-ITD, FLT3-ITD/D835V or FLT3-ITD/F691L genes. Stable cell lines were selected by puromycin treatment, followed by IL-3 withdrawal.
(§2) Cell proliferation assay was carried out in a panel of 108 cell lines. 1000 (attached cells) or 3000 (suspension cells) cells/100 μl per well were seeded in 96 well black plate with a clear bottom (Corning #3904). Compounds were added using Tecan D300e Digital Dispenser in 1:3 titration for 9 doses. Plates were incubated for 5 days at 37° C. and 5% CO2. Cell proliferation was measured using CellTiter-Glo 2.0 luciferase-based ATP detection assay (Promega, Madison, WI) at 50 μl per well following the manufacturer's protocol. Plates were then read on a TECAN Sparks multimode microplate reader. Data was analyzed using GraphPad Prism 9 (GraphPad Software, San Diego, CA) to obtain IC50 values. IC50 values were determined using Prism software (GraphPad Software, San Diego, CA).

BaF3 FLT3-ITD/F691L = experiment: as above; assay type: cell-based; conditions: murine pro-B cell line expressing FLT3-ITD/F691L
Excerpt: as §1, §2

BaF3 FLT3-ITD = experiment: as above; assay type: cell-based; conditions: murine pro-B cell line expressing FLT3-ITD
Excerpt: as §1, §2

BaF3 = experiment: as above; assay type: cell-based; conditions: murine IL-3 dependent pro-B cell line, with 1 ng/mL mouse IL-3
Excerpt: as §1, §2

BCLxS/xL = experiment: Alternative splicing ratio by qPCR in MV-4-11; assay type: cell-based; conditions: DMSO = 1
Description: Alternative splicing ratio of RNA transcripts was measured by qPCR in MV-4-11 and MOLM-13 cell lines. Cells were plated in 24 well plates at 1 million cells per well and then treated with compounds at different concentrations, with DMSO only as control. […] Total RNA was extracted using the RNA Purification Kit (Invitrogen). 2 μg of RNA was used for cDNA synthesis using cDNA synthesis kit (ThermoFisher) and 20 ng of cDNA was used for qPCR using PROFLEX 96-Well PCR System (ThermoFisher).
• BCLxS/xL (SYBR Green, IDT)

MOLM-13 cell line = experiment: Alternative splicing events by RNAseq in MOLM-13; assay type: cell-based; conditions: 8 hour-incubation
Description: Alternative splicing events were measured by RNAseq in MOLM-13 cell line. Cells were plated in 24 well plates at 1 million cells per well and then treated with compounds at different concentrations, with DMSO as control. After 8 hour-incubation, cells were harvested and washed once with ice-cold PBS, and lysed in RNA lysis buffer (Invitrogen). Total RNA was extracted using the RNA Purification Kit (Invitrogen). RNAseq was performed by Biomiga (San Diego).

IMR-32 tumor = experiment: Cell-derived xenograft (CDX) tumor model; assay type: in vivo; conditions: IMR-32 CDX, mice, oral 25 mg/kg QD, 8 days
Description: (§3) Tumor cells were cultured using standard techniques described above and were harvested and pelleted by centrifugation at 1000 rpm for 5 minutes. The pelleted cells were washed once with serum-free medium followed by subsequent re-suspension in the serum-free medium supplemented with 50% matrigel (Corning, Inc). Five million tumor cells were implanted subcutaneously to the right flank of each mouse, followed by tumor volume and body weight measurement once or twice per week with an electronic caliper (Fowler) and a balance, respectively. When the average tumor size reached a pre-determined volume, the mice were grouped and treated with Ex. 6. One group of mice were treated with vehicle as control. During treatment, mice were monitored daily by cage side observation. The tumor volume (TV) and body weight was measured twice or three times per week during the treatment. Study ended either after 4-5 weeks of treatment or tumor volume of any mice reached 1000 or 2000 mm^3. Tumor growth inhibition (TGI) was be calculated as follows: […]

MOLM-13 tumor = experiment: Cell-derived xenograft (CDX) tumor model; assay type: in vivo; conditions: MOLM-13 CDX, mice, 13 days
Description: as §3

MV-4-11 tumor = experiment: Cell-derived xenograft (CDX) tumor model; assay type: in vivo; conditions: MV-4-11 CDX, mice, 20 days
Description: as §3

SW403 tumor = experiment: Cell-derived xenograft (CDX) tumor model; assay type: in vivo; conditions: mice, oral 25 mg/kg QD, 20 days
Description: as §3

SW480 tumor = experiment: Cell-derived xenograft (CDX) tumor model; assay type: in vivo; conditions: mice, oral 25 mg/kg QD, 28 days
Description: as §3

## CCc1nn(C)c2c1/C=C/c1n[nH]c3ccc(cc13)-c1cnn(C)c1OCCN(C)C2=O [Ex. 6, (17E)-16-ethyl-8,12,14-trimethyl-2,11,12,14-tetrahydro-8H-3,5-ethenotripyrazolo[3,4-f:3′,4′-j:4″,3″-n][1,4]oxazacyclopentadecin-13(10H)-one]
BaF3 FLT3-ITD/D835V
  IC50: 1.3 nM
BaF3 FLT3-ITD/F691L
  IC50: 22.9 nM
BaF3 FLT3-ITD
  IC50: 0.55 nM
BaF3
  IC50: 513 nM
BCLxS/xL; MV-4-11, 2 nM
  Alternative Splicing Ratio BCL-xS/xL 6-hour: 0.7
  Alternative Splicing Ratio BCL-xS/xL 24-hour: 0.6
BCLxS/xL; MV-4-11, 10 nM
  Alternative Splicing Ratio BCL-xS/xL 6-hour: 1.1
  Alternative Splicing Ratio BCL-xS/xL 24-hour: 0.9
BCLxS/xL; MV-4-11, 50 nM
  Alternative Splicing Ratio BCL-xS/xL 6-hour: 1.4
  Alternative Splicing Ratio BCL-xS/xL 24-hour: 1.3
BCLxS/xL; MV-4-11, 250 nM
  Alternative Splicing Ratio BCL-xS/xL 6-hour: 3.7
  Alternative Splicing Ratio BCL-xS/xL 24-hour: 7.3
MOLM-13 cell line; MOLM-13, 30 nM
  AS Events A3′SS (alternative 3′ splice site): 371
  AS Events A5′SS (alternative 5′ splice site): 289
  AS Events MXE (mutually exclusive exons): 187
  AS Events RI (retained intron): 536
  AS Events SE (skipped exon): 2054
MOLM-13 cell line; MOLM-13, 100 nM
  AS Events A3′SS (alternative 3′ splice site): 559
  AS Events A5′SS (alternative 5′ splice site): 443
  AS Events MXE (mutually exclusive exons): 325
  AS Events RI (retained intron): 841
  AS Events SE (skipped exon): 4568
MOLM-13 cell line; MOLM-13, 300 nM
  AS Events A3′SS (alternative 3′ splice site): 722
  AS Events A5′SS (alternative 5′ splice site): 590
  AS Events MXE (mutually exclusive exons): 355
  AS Events RI (retained intron): 1184
  AS Events SE (skipped exon): 5093
IMR-32 tumor
  TGI %: 82%
MOLM-13 tumor; oral 12.5 mg/kg QD
  TGI %: 74%
MOLM-13 tumor; oral 25 mg/kg QD
  TGI %: 94%
MV-4-11 tumor; oral 6.25 mg/kg QD
  TGI %: 98.8%
MV-4-11 tumor; oral 12.5 mg/kg QD
  TGI %: 189%
MV-4-11 tumor; oral 25 mg/kg QD, 5dOn-2dOff
  TGI %: 200%
MV-4-11 tumor; oral 25 mg/kg QD
  TGI %: 200%
SW403 tumor
  TGI %: 84%
SW480 tumor
  TGI %: 93%
